The target in the assay is T1, PI3K gamma (Homo sapiens, UniProt P48736).
T1 construct: His tag (C); made in house; host or cells: construct from Roger Williams lab (pVL1393); baculovirus BV950; Tn5 (Trichoplusia ni) or TiniPro insect cells
T1 sequence (P48736 144-1102 limits assumed): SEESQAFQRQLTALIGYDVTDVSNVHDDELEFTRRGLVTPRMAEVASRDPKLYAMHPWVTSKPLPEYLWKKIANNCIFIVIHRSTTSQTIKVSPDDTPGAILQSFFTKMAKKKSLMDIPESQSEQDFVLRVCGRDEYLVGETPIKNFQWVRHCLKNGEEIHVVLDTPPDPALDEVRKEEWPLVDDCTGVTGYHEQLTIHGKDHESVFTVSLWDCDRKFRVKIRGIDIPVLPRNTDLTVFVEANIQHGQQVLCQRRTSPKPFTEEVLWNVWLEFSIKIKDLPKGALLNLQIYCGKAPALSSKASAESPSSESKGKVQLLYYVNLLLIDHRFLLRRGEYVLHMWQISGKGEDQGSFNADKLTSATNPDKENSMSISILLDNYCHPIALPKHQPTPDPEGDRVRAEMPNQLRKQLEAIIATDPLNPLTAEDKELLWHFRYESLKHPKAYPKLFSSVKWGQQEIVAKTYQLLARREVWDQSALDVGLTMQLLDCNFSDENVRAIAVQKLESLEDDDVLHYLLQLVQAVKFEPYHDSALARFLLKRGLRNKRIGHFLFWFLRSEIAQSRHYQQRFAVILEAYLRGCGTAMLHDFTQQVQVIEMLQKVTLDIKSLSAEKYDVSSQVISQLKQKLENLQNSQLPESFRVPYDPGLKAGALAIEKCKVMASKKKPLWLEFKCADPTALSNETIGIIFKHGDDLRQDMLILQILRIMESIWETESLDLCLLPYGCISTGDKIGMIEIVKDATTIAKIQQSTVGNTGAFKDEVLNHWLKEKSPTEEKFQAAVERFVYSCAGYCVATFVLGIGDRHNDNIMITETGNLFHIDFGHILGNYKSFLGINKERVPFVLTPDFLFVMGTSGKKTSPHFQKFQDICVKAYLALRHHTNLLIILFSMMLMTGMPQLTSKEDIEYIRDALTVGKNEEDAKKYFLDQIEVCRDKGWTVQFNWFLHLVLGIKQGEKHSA
Nature of the assay: PI3K gamma kinase assay (Kinase-Glo luminescence). Type of assay: biochemical. The following applies: read-out: PI3Kgamma/IC50. On the procedure:
In a more preferred assay, the kinase reaction is performed in a final volume of 10 μL per well of a low volume non binding CORNING, 384 well black plate (Cat. No. #3676). The final concentrations of ATP and phosphatidyl inositol (PI) in the assay are 1 μM and 10 μg/mL respectively. The reaction is started by the addition of ATP.
The components of the assay are added per well as follows:
50 nL test compounds in 90% DMSO per well, in columns 1-20, 8 concentrations (⅓ and 1/3.33 serial dilution step) in single. • Low control: […] of 90% DMSO in half the wells of columns 23-24 (0.45% in final). • High control: 50 nL of reference compound (e.g. compound of Example 7 in WO 2006/122806) in the other half of columns 23-24 (2.5 μM in final). • Standard: 50 nL of reference compound as just mentioned diluted as the test compounds in columns 21-22 • 20 mL ‘buffer’ are prepared per assay: • 200 μL of 1M TRIS HCl pH7.5 (10 mM in final) • 60 μL of 1M MgCl2 (3 mM in final) • 500 μL of 2M NaCl (50 mM in final) • 100 μL of 10% CHAPS (0.05% in final) • 200 μL of 100 mM DTT (1 mM in final) • 18.94 mL of nanopure water • 10 mL ‘PI’ are prepared per assay: • 200 μL of 1 mg/ml L-alpha-Phosphatidylinositol (Liver Bovine, Avanti Polar Lipids Cat. No. 840042C MW=909.12) prepared in 3% OctylGlucoside (10 μg/ml in final) • 9.8 mL of ‘buffer’ • 10 mL ‘ATP’ are prepared per assay: • 6.7 μL of 3 mM stock of ATP giving a final concentration of 1 μM per well • 10 mL of ‘buffer’ • 2.5 mL of each PI3K construct are prepared per assay in ‘PI’ with the following final concentration: • 10 nM PI3K alfa EMV B1075 • 25 nM beta EMV BV949 • 10 nM delta EMV BV1060 • 150 nM gamma EMV BV950 • 5 μL of ‘PI/PI3K’ are added per well. • 5 μl ‘ATP’ are added per well to start the reaction. • The plates are then incubated at room temperature for 60 minutes (alfa, beta, delta) or 120 minutes (gamma). • The reaction is terminated by the addition of 10 μL Kinase-Glo (Promega Cat. No. #6714). • The assay plates are read after 10 minutes in Synergy 2 reader (BioTek, Vermont USA) with an integration time of 100 milliseconds and sensitivity set to 191. • Output: The High control is around 60′000 counts and the Low control is 30′000 or lower • This luminescence assay gives a useful Z′ ratio between 0.4 and 0.7
PI3K gamma is purified in two chromatographic steps: immobilized metal affinity chromatography (IMAC) on a Ni Sepharose resin (GE Healthcare) and gel filtration (GFC) utilizing a Superdex 200 26/60 column (GE Healthcare). All buffers are chilled to 4° C. and lysis is performed chilled on ice. Column fractionation is performed rapidly at room temperature. Typically frozen insect cells are lysed in a hypertonic lysis buffer and applied to a prepared IMAC column. The resin is washed with 3-5 column volumes of lysis buffer, followed by 3-5 column volumes wash buffer containing 45 mM imidazole, and the target protein is then eluted with a buffer containing 250 mM imidazole. Fractions are analyzed by Coomassie stained SDS-PAGE gels, and fractions containing target protein are pooled and applied to a prepared GFC column. Fractions from the GFC column are analyzed by Coomassie stained SDS-PAGE gels, and fractions containing target protein are pooled. The final pool is dialyzed into a storage buffer containing 50% glycerol and stored at −20° C. The final pool is assayed for activity in the phosphoinostitol kinase assay.
IC50 is determined by a four parameter curve fitting routine that comes along with “excel fit”. A 4 Parameter logistic equation is used to calculate IC50 values (IDBS XLfit) of the percentage inhibition of each compound at 8 concentrations (usually 10, 3.0, 1.0, 0.3, 0.1, 0.030, 0.010 and 0.003 μM). Alternatively, IC50 values are calculated using idbsXLfit model 204, which is a 4 parameter logistic model.
(Kinase-Glo measures the ATP left after a reaction by luminescence.)
For the molecule `CNC(=O)c1ccc(-c2ccc3ncc4c(c3c2)n(-c2cccnc2C)c(=O)n4C)cc1` [Example 2.4, N-Methyl-4-[3-methyl-1-(2-methyl-pyridin-3-yl)-2-oxo-2,3-dihydro-1H-imidazo[4,5-c]quinolin-8-yl]-benzamide], the IC50 worked out at 0.455 µM.

`Cc1ncccc1-n1c(=O)n(C)c2cnc3ccc(-c4cnc5[nH]ccc5c4)cc3c21` [Example 2.8, 3-Methyl-1-(2-methyl-pyridin-3-yl)-8-(1H-pyrrolo[2,3-b]pyridin-5-yl)-1,3-dihydro-imidazo[4,5-c]quinolin-2-one]: the IC50 amounted to 0.361 µM.

Consider `Cn1c(=O)n(-c2cccnc2F)c2c3cc(-c4cnc5[nH]ccc5c4)ccc3ncc21` [Example 6.3, 1-(2-Fluoro-pyridin-3-yl)-3-methyl-8-(1H-pyrrolo[2,3-b]pyridin-5-yl)-1,3-dihydro-imidazo[4,5-c]quinolin-2-one], for which the IC50 was 0.464 µM.

The record behind these values is patent US20100311714A1, “1H-IMIDAZO[4,5-c]QUINOLINONE COMPOUNDS” (priority 2009, published 2010).
